Test results from patent publication US10814019B2, “MRI signal suppression agents, compositions, and methods” (University of Washington, priority 2014, dated 2020).

Tests used:
[1] = mDixon signal intensity of whole venous blood samples containing Ablavar; assay type: physicochemical
Procedure: Six in vitro whole venous blood samples each contained a different concentration (0, 2, 4, 6, 8, and 12 mM) of gadofosveset trisodium (Ablavar). For long echo time pairs (e.g., 11.5 ms/12.7 ms), the signal intensity decreased rapidly with Ablavar concentration greater than about 4 mM.

[2] = in vivo; cited from earlier work

For O=C([O-])CN(CCN(CC(=O)[O-])CC(COP(=O)([O-])OC1CCC(c2ccccc2)(c2ccccc2)CC1)N(CC(=O)[O-])CC(=O)[O-])CC(=O)[O-].[Gd+3].[Na+].[Na+].[Na+] (stereo not drawn) [Ablavar, gadofosveset trisodium], the “signal intensity relative to pure blood” value ([1]; 12 mM Ablavar, echo times as short as 6.9 ms/8.1 ms) is given as “below that of pure blood”, the “Ablavar concentration above which signal intensity decreased rapidly” value ([1]; long echo time pairs (e.g., 11.5 ms/12.7 ms)) is given as “greater than 4 mM” and the half-life [2] is given as “about 30 minutes”.
